From ChEMBL document CHEMBL4665682, “Fragment Linking Strategies for Structure-Based Drug Design” (J Med Chem, 2020)

Tests used:
Caspase-3 = target: T1, Caspase-3 (Homo sapiens, UniProt P42574); assay: Inhibition of caspase-3 (unknown origin) using Ac-DEVD-AMCA as substrate incubated for 5 mins by Dixon plot analysis
T1 sequence (P42574 whole entry): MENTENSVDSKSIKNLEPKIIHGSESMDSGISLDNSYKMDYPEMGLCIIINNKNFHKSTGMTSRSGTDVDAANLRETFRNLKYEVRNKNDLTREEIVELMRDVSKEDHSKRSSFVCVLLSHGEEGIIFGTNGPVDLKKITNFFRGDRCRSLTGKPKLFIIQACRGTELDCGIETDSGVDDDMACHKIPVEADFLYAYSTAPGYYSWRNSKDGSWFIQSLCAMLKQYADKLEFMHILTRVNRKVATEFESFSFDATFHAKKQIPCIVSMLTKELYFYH

[1] = Inhibition of Influenza B virus (B/Victoria/504/2000) Neuraminidase
Acetylcholinesterase [2] = target: T2, Acetylcholinesterase (Mus musculus, UniProt P21836); assay: Binding affinity to mouse ACHE by fluorescence method
T2 sequence (P21836 whole entry): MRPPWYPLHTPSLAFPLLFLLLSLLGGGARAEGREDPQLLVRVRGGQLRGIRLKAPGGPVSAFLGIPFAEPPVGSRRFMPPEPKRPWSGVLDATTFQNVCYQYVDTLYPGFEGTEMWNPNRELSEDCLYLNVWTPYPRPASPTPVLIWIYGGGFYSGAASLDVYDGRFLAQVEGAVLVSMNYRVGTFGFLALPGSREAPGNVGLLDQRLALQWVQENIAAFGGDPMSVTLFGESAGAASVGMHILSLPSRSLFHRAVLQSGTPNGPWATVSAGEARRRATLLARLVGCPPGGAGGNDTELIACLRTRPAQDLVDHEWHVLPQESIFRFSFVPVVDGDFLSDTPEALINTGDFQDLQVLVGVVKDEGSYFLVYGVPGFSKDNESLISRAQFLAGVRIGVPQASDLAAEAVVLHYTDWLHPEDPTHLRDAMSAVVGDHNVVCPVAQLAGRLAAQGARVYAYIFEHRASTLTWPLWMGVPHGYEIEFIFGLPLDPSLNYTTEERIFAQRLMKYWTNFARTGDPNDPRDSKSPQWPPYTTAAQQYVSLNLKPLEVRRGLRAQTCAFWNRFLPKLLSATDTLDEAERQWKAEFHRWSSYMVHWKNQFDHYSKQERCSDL

Acetylcholinesterase [3] = target: T3, Acetylcholinesterase (Rattus norvegicus, UniProt P37136)
T3 sequence (P37136 whole entry): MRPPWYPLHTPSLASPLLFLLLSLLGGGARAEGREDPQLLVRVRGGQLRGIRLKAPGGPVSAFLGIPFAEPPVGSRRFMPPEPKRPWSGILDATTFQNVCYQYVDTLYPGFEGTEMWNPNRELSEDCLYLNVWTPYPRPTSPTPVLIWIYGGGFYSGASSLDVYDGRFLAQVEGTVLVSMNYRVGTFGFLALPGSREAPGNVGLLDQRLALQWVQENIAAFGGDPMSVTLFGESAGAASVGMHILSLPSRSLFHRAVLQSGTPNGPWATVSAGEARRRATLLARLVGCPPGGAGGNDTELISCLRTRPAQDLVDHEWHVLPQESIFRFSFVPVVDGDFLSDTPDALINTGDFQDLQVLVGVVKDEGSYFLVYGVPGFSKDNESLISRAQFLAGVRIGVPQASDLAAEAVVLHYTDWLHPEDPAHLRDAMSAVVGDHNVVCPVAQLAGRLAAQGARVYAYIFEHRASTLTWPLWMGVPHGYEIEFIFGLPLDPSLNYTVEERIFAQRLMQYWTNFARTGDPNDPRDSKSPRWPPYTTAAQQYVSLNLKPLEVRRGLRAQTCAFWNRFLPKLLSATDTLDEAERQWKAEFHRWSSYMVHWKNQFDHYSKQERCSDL
Description: Inhibition of rat brain Acetylcholinesterase using acetylthiocholine as substrate in presence of BChE inhibitor ethopropazine

CN(C)c1ccc(-c2nc3cc(N)ccc3o2)cc1 showed a Ki (Caspase-3) of 120 µM.
CCC(CC)N[C@@H]1C=C(C(=O)O)C[C@H](N)[C@H]1NC(C)=O gave a Ki [1] of 0.085 µM.
In the case of C#CCCCCCC[n+]1c(-c2ccccc2)c2cc(N)ccc2c2ccc(N)cc21, the Kd (Acetylcholinesterase [2]) is reported as 10000 µM.
Compound c1ccc2c(NCCCCCCNc3c4c(nc5ccccc35)CCCC4)c3c(nc2c1)CCCC3 has an IC50 (Acetylcholinesterase [3]) of 0.0004 µM.
